Measured values reported in US6482410B1, “Cytotactin derivatives that stimulate attachment and neurite outgrowth, and methods of making same” (The Scripps Research Institute, priority 1994, dated 2002).
Values belong to the molecule of their own block, whether it stands above or below them.

How the values were obtained:
[1] = test system: dorsal root ganglia (DRG) neurons; experiment: Two-dimensional neurite outgrowth assay, DRG, 15 hours; type: cell-based, chicken; conditions: 15 hours
Method: (§1) Dorsal root ganglia (DRG) cells or forebrain neurons were prepared for the cell attachment assays as follows. DRG from day 6 chicken embryos or forebrains from day 7 chicken embryos were dissected into HBSS. The tissue was pelleted by centrifugation and resuspended in CMF-HBSS and incubated at 37° C. for 10 minutes. The tissue was pelleted again and resuspended in CMF-HBSS containing 0.08% trypsin and allowed to trypsinize for 20 minutes at 37° C. An equal volume of DMEM/F12, 10% FCS, 20 ng/ml nerve growth factor (NGF) (for DRG cells only), 10 μg/ml gentamycin (10% medium) was added, and the tissue was pelleted and resuspended in 2 ml of the 10% medium. The cells were triturated with a fire-polished Pasteur pipette for 15 strokes, and the cells were washed and resuspended in 10 ml of 10% medium. DRG cells were plated in a 10 cm tissue culture dish and incubated for 1 hour at 37° C. in 5% CO2, to allow for attachment of contaminating fibroblasts.
(§2) After replating, the cells were harvested, pelleted and washed three times in DMEM/F12, 1% fetal calf serum (FCS), 20 ng/ml NGF (for DRG cells only), 10 μg/ml gentamycin (1% medium), and the number of cells determined using a hemocytometer. The DRG were resuspended to a density of 6×10^5 cells/ml in attachment buffer. The neurons were resuspended to a density of 2×10^4 cells/ml in 1% medium and added to substrates and placed at 37° C., 5% CO2 for 15 hours.
(§3) After the growth period, the dishes were gently rinsed with PBS to remove unbound cells, fixed with 1% glutaraldehyde, and viewed by phase contrast microscopy. Ten to forty cells were analyzed for each substrate. Cells were judged as neurite-bearing if the length of the processes was greater than one cell diameter. All cells with neurites were photographed with a 20× objective and total neurite length per neurite-bearing cell was derived from the photographic prints. Percentage of neuronal sprouting was calculated from at least six experiments. Neurite length was calculated from at least three experiments.
This extensive neurite outgrowth after 40 hours made quantitation of the percentage of neurite-bearing cells and neurite length difficult. To analyze quantitatively the effect of CT/TN fusion proteins on DRG neurite outgrowth, DRG cells were therefore plated at low density on CT/TN or CT/TN fragments and analyzed after 15 hours in culture for the percentage of cells that sprouted neurites greater than one cell diameter and for the everage neurite length per neuron. These conditions enhanced the number of isolated cells and discouraged the cell-cell interactions and fasciculation that occurred in the long-term cultures.
The proteins used in the neurite outgrowth assays are the same as those used in the cell attachment assays. […] In addition, poly-L-lysine was adsorbed to the solid support. […] Any cells adhering to the solid support were examined for sprouting and neurite length as defined herein.
Proteins used in the neurite outgrowth assays were prepared as described in Example 5.A.2.
Dorsal root ganglia (DRG) from day 6 chicken embryos were prepared as described in Example 5.A.4. For the neurite outgrowth assays, the DRG were resuspended at a density of 2×10^4 cells/ml in 1% medium, added to solid support, and placed at 37° C. in 5% CO2 for 15 hours. After the attachment and growth period, the dishes were gently rinsed with PBS to remove unbound cells, fixed with 1% (v/v) glutaraldehyde, and viewed by phase contrast microscopy. Ten to thirty cells were analyzed for each adsorbed protein spot. Cells were judged as neurite-bearing if the length of the processes were greater than one cell diameter. All cells with neurites were photographed with a 40× objective and the total neurite length per neurite-bearing cell was derived from the prints. The percent of cells that were sprouting and the average neurite length was derived from six and three independent experiments, respectively. […]

[2] = test system: chicken fibroblast cell line SL29; experiment: Cell attachment assay, fibroblasts on protein-coated solid support; type: cell-based; conditions: CT coated at 20 μg/ml, binding fragments at 0.75 μM, non-binding at three times that, 1 hour
Method: In the cell attachment assays, a single cell suspension was allowed to settle for a fixed period of time onto a solid support that has been coated with the different CT-derived proteins to be tested for cell attachment (Friedlander, et al., J. Cell Biol. 107: 2329-2340 (1988)). After removing the unbound and loosely bound cells by washing, the attachment and morphology of those cells remaining on the dish were analyzed.
Solid supports, consisting of a circular array of CT or CT:GST fusion proteins bound to a dish, were prepared as follows for the cell attachment assay.
For the initial study, non tissue-culture treated polystyrene plates (Falcon 1008) were spotted with 2 μl of a 0.5 to 1.5 μM solution of CT in PBS for 30 minutes to coat a specific area on the dish with CT. CT was isolated from chicken brain or from fibroblast culture supernatant as described in Crossin, PNAS 88: 11403-11407 (1991) and Hoffman et al., J. Cell Biol. 106: 519-532 (1988). CT was placed in a circular array near the center of the dish and incubated at 37° C. for 30 minutes. After CT had adsorbed to the dish, the central portion of the dish was washed once with 250 μl of 20% (w/v) BSA in PBS. Non-specific binding sites on the dish were then blocked with 250 μl of 20% (w/v) BSA in PBS by incubation for 2 to 3 hours at room temperature.
For the subsequent study with the CT:GST fusion proteins, non tissue-culture treated polystyrene plates (Falcon 1008) were spotted with 2 μl of a 0.5 to 1.5 μM solution of CT:GST fusion protein in PBS as prepared in Example 5.A.2 or GST in PBS for 30 minutes to coat a specific area on the dish with CT:GST fusion protein or GST. The proteins to be tested were placed in a circular array near the center of the dish and incubated at 37° C. for 30 minutes. After the proteins adsorbed to the dish, the central portion of the dish was washed once with 250 μl of 20% (w/v) BSA in PBS. Non-specific binding sites on the dish were then blocked with 250 μl of 20% (w/v) BSA in PBS by incubation for 2 to 3 hours at room temperature.
The chicken fibroblast cell line SL29 (ATCC CRL 1590) was grown to confluence in Dulbecco's Minimum Essential Medium (DMEM; Gibco-BRL, Gaithersburg, Mass.) with 10% (v/v) fetal calf serum (FCS; Gibco-BRL) with penicillin and streptomycin. The cells were passaged the night prior to the assay and seeded at a density of 1:2. Cells were harvested in calcium, magnesium-free Hank's balanced salt solution (CMF-HBSS, Gibco-BRL) with 20 mM Hepes buffer and 5 mM EDTA. Harvested cells were washed in attachment buffer (CMF-HBSS with 10 mM Hepes, 1 mM CaCl2, 1 mM MgCl2, 0.1 mM MnCl2, and 2% (w/v) bovine serum albumin (BSA)) three times. The number of cells was quantitated by counting the cells in a hemocytometer. The cells were resuspended in attachment buffer to a density of 6×10^5 cells/ml.
Chicken fibroblasts, DRG, and solid supports (dishes) coated with CT for use in the cell attachment assays were prepared as described in Examples 5.A.2-4, respectively. The chicken fibroblasts and DRG at a density of 6×10^5 cells/ml were added to the prepared dishes and incubated at 37° C. in 5% CO2 for 1 hour. The dishes were then washed three times in PBS with gentle swirling to remove unattached cells, fixed in 1% glutaraldehyde in PBS, and viewed by phase contrast microscopy. The number of bound cells was determined using a 10× objective with an eyepiece reticle. The number of cells was determined in four fields for each fusion protein dot as the number of cells bound per […]. CT was tested in triplicate. The number of cells bound for CT was expressed as the average of the twelve measurements±standard deviation […].
CT, coated at a concentration of 20 μg/ml, was used as a solid support for SL29 fibroblast attachment. […] Fragments of CT were generated using the pGEX fusion protein system, as described in Example 1. The cell attachment assay was performed essentially as described above for the cell attachment assay to intact CT. […]

[3] = test system: neurons from chick forebrain; experiment: CNS neurite outgrowth, forebrain neurons, 7 hours; type: cell-based; conditions: 7 hour growth period
Method: as §1, §2, §3
To investigate whether CNS neurons could also extend neurites on CT/TN and CT/TN fragments, neurons from chick forebrain were plated at low density on CT/TN, CT/TN fragments and polylysine, and analyzed for neurite outgrowth after a 7 hour growth period (a time period found to be optimal for stable neurite outgrowth from these cells). The lengths of neurites on substrates that supported sprouting were essentially the same for the forebrain neurons and were therefore not quantitated further.

[4] = biological target: β1 integrin on chicken SL29 fibroblasts and chick dorsal root ganglion neurons (chicken) (UniProt P07228); experiment: cell-based or functional assay
UniProt P07228, sequence (P07228 25-803, form in doubt): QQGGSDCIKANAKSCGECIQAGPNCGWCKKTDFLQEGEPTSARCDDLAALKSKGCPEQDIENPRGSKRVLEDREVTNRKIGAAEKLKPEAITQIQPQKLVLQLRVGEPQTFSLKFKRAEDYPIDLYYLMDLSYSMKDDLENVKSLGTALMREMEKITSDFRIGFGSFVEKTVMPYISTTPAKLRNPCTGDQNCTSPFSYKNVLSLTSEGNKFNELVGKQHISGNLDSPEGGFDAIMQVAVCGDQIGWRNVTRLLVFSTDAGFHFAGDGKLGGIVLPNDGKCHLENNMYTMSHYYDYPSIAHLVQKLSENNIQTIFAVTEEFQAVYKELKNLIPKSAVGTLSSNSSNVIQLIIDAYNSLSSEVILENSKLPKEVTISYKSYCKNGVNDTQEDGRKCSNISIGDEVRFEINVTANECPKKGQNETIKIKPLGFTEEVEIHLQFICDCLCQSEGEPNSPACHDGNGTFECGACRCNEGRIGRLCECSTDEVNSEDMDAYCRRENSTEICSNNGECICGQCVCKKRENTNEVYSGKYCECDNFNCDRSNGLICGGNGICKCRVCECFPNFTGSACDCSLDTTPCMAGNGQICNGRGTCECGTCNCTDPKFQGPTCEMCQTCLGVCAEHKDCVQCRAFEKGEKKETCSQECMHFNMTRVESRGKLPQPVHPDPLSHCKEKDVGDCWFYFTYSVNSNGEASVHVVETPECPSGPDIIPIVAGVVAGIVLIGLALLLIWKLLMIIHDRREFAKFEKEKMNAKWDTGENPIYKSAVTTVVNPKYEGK

[5] = biological target: integrin receptor mediating RGD-dependent, not β1 integrin-mediated attachment of chicken SL29 fibroblasts and DRG cells; experiment: cell-based or functional assay
[6] = test system: DRG cells; experiment: DRG neurite outgrowth, 40 hour culture, morphology; type: cell-based, chicken; conditions: DRG cells cultured 40 hours
Method: In order to assess the effect to the cell binding regions of CT/TN on the outgrowth of neurites from PNS neurons, DRG cells were cultured for 40 hours on popylysine, CTfn3, CTfn6, CTfg, and CTfn3-CTfn6 mixed substrates. The cultures were then fixed and the cell and neurite morphology was analyzed by phase contrast microscopy. The cells were plated on plastic substrates coated with the same concentrations of CTITN and fusion proteins used in the attachment assay.

Molecule: CT: intact cytotactin isolated from chicken brain or fibroblast culture supernatant
- percentage of DRG cells that sprouted neurites ([1]; DRG): About 50%
- percentage of DRG cells that sprouted neurites ([1]; DRG, listed as CT/TN): 30%
- % Sprouting ([1]; Table 4, DRG, neurites greater than one cell diameter): 30 ± 3 %
- Neurite Length ([1]; Table 4, DRG, per neurite-bearing cell): 332 ± 177 microns
- Percent Sprouting ([1]; Table 5, DRG, six experiments): 30 ± 3
- Neurite Length (in microns) ([1]; Table 5, DRG, three experiments): 332 ± 177 microns
- SL29 fibroblast attachment to coated substrate (words) [2]: readily attached
- SL29 fibroblast attachment to coated substrate (words) ([2]; listed as CT/TN): bound well
- forebrain cell attachment [3]: low level of attachment
- forebrain neuron sprouting versus polylysine [3]: did not support sprouting of neurites
- % Sprouting ([3]; Table 4, FB (forebrain) neurons): 0%

- decrease in DRG cell attachment to CTfg after preincubation with JG22 [4]: 19%
Molecule: CTfg CT:GST fusion protein (fibrinogen domain of chicken cytotactin fused to GST) (from UniProt P10039 1568-1808)

- inhibition of SL29 fibroblast attachment to intact CT/TN by GRGDTP (1 mg/ml) [5]: 33%
- inhibition of cell attachment to intact CT by soluble GRGDSP (1 mg/ml) [5]: 73%
- inhibition of cell attachment to intact CT by soluble GRGDTP (1 mg/ml) [5]: 70%
Molecule: intact cytotactin (CT) isolated from chicken brain or from fibroblast culture supernatant (from UniProt P10039 34-1808) (ligand)

- inhibition of SL29 fibroblast binding to CTfn5-6 by mAb JG22 [4]: 77%
Molecule: CTfn5-6 fusion protein spanning the fifth and sixth FN type III repeats of chicken cytotactin (from UniProt P08515 1-218)

B1: CTfn3-6: single construct containing fibronectin type III repeats III and VI, SEQ ID NO 29 (protein, listed as Gallus gallus)
chain: LDAPSQIEAKDVTDTTALITWSKPLAEIEGIELTYGPKDVPGDRTTIDLSEDENQYSIGNLRPHTEYEYEVTLISRRGDMESDPAKEVFVTVVGSPKGISFSDITENSARVSWTPPRSRVDSYRVSYVPITGGTPNVVTVDGSKTRTKLVKLVPGVDYNVNIISVKGFEESE
- neurite promoting activity on DRG cells ([1]; DRG, low density): significant increase both in the percentage of neurite-bearing cells and in neurite elongation
- neurite and cell morphology after 40 hours [6]: much longer and less fasciculated
